Series [1] deals with Mycobacterium tuberculosis H37Rv. Nature of the series: Minimum inhibitory concentration (MIC90) against Mycobacterium tuberculosis H37Rv, Middlebrook 7H9, 96-well plate, 15 days. Type of series: cell-based. The conditions noted are these: Mycobacterium tuberculosis H37Rv, 15 days of incubation, 90% inhibition of growth, visual reading.
Series [2] in a line: Pharmacokinetics and lung tissue distribution in mice, LC-MS/MS. The conditions noted are these: 100 mg/kg. Type of series: in vivo, Balb/C mice. The method, then: In this example, the pharmacokinetic parameters and lung tissue distribution of the deuterated compounds YF027, YF032, YF036, and YF044 and their respective non-deuterated control compounds (A, B, C, and D) were determined.
Balb/C mice, male (1 group at each time point, 5 mice per group, 55 mice per compound in total), 7-8 weeks old, weighing about 20 g, animal source: Beijing Vital River Laboratory Animal Technology Co., Ltd.
The test compound was completely dissolved in an 8% Tween-80 aqueous solution. A 10 mg/mL drug liquid was prepared for intraperitoneal injection and intragastric administration.
Single intragastric administration was performed at a dose of 100 mg/kg. The pharmacokinetic differences between the deuterated compounds YF027, YF032, YF036, and YF044 and their respective non-deuterated controls A, B, C, and D were compared.
The mice were fasted overnight before administration. In the experiment, orbital venous blood and lung tissue were collected from the mice at time points of no administration group (0 min) and 10 min, 20 min, 30 min, 1 h, 2 h, 3 h, 4 h, 6 h, 8 h, and 24 h after intragastric administration, and about 300 µL of blood was collected from the eyeballs each time.
The collected blood sample was placed in an anticoagulation tube, and quickly inverted and mixed well. The tube was temporarily placed on ice after being labeled. The blood samples temporarily stored on ice were subjected to low-temperature centrifugation within 1 h at 4 °C at 3000 rpm for 10 min. The supernatant obtained after centrifugation was plasma. The plasma was transferred to a new centrifuge tube and stored in a refrigerator at -80 °C for subsequent detection.
The lung tissues of the mice were collected, washed with pre-cooled normal saline to remove the residual blood and tissue fluid, dried with absorbent paper, weighed with a balance, and placed into a centrifuge tube. The tubes were marked and stored in a refrigerator at -80 °C.
The concentrations of the compounds of the present disclosure and control compounds in plasma and lung tissue were determined using LC-MS/MS. Table 2. Pharmacokinetic parameters of compound YF027 of the present disclosure and control compound A

The subject of series [3] is Mycobacterium tuberculosis H37Rv. Type of series: in vivo, BALB/c mice.
The next series concerns liver microsomes. Nature of the series: Liver microsome incubation of positive control group (positive substrates). Type of series: in vitro ADME, mouse. The protocol: This example was to detect the CYP450 metabolic enzyme phenotype of the deuterated compound YF027 and its non-deuterated control compound A (using a CYP450 enzyme metabolic phenotype research kit (recombinant enzymatic method/7 enzymes)-mouse liver microsome test).
• a. The test compound was prepared into a 40 mM stock solution for later use. 2.5 µL of the stock solution was taken and diluted with DMSO to a test compound concentration of 200 µM, and the compound at this concentration was used in subsequent tests. • b. The working solution concentration of the mixed positive substrates, phenacetin and testosterone, was 200 µM.
1) The components of the kit were thawed in an ice bath. The mixture was well mixed by vortexing and then placed on ice for later use. 2) In addition to the microsomes, the other components of the incubation systems were mixed according to the ratios and well mixed by pipetting, and the ratios of the incubation systems are shown below; Table 6. Incubation system of positive control group
3) Except for the negative control group (Table 9), 3.125 µL of liver microsomes was added to each of the above incubation systems to prepare 125 µL of reaction solution. The reaction solutions were well mixed by vortexing, and then placed in a water bath at 37 °C to initiate the reaction. A timer was set. […]

[4] abbreviates: Balb/C mice, single intragastric administration, plasma.
The mark [5] stands for this setting: Balb/C mice, single intragastric administration, plasma, 1440 min.
Setting [6] is: Mycobacterium tuberculosis, H37RV, 360 h.

In brackets after ≈: the same amount, converted by molar mass. Several values for one entry are separate records, joined by “and”; a condition that tells them apart may be missing. Equal entries are not always repeated. Structures can show the parent of a compound that is named as a salt. Where two headings read alike, the source gives them in different places.

As for `CCCC(=O)C1CCN(Cc2c(O)ccc3oc4c(c23)C(=O)OCc2cc(O)ccc2-4)CC1` [Compound C], the MIC90 in series [1] (360 h, read-out: MIC90) amounted to 0.0625 µg/mL (≈ 0.139 µM). In addition, in series [2] (mouse, in vivo, po), the AUC(0-inf) is 5430 ng·h/mL; the AUC(0-t) at 24 h amounted to 4960 ng·h/mL; the CL came out at 307.2 mL/min/kg; the peak concentration (Cmax) is 944 ng/mL and 5420 ng/g. For the same compound, in series [2] (mouse, in vivo, po), the Tmax turned out to be 0.5 h and the half-life is 7.12 h. For the same compound, the “reduction of pulmonary bacterial load” value in series [3] (mouse, in vivo) came out at 1.99 log.

As for `O=C1OCc2cc(O)ccc2-c2oc3ccc(O)c(CN4CCC(c5cccc(Cl)c5)CC4)c3c21` [Compound B], the MIC90 in series [1] (360 h, read-out: MIC90) amounted to 0.125 µg/mL (≈ 0.255 µM). For the same compound, in series [2] (mouse, in vivo, po), the AUC(0-inf) turned out to be 10400 ng·h/mL; the area under the curve AUC(0-t) at 24 h came to 10300 ng·h/mL; the CL came to 161 mL/min/kg; the Cmax was 3570 ng/mL and 23400 ng/g. In series [2] (mouse, in vivo, po), the Tmax came out at 1 h and the half-life is 1.74 h. Further, in series [3] (4 weeks intragastrically, Table 11 prints 50 mg/kg, text implies twice the dose of YF032), the “bacteriostatic activity in mice” value is “no bacteriostatic activity”.

Turning to `C[C@]12CC[C@H]3[C@@H](CCC4=CC(=O)CC[C@@]43C)[C@@H]1CC[C@@H]2O` [testosterone], in the series on liver microsomes (liver microsomes, after 90 min of incubation, 37 °C), the “metabolism of positive substrate” value is “almost completely metabolized”.

Consider “8-((4-Butanoylpiperidin-1-yl-2,2,6,6-d4)-methyl-d2)-3,9-dihydroxybenzo[5,6]oxepino[4,3-b]benzofuran-7(5H)-one hydrochloride [YF036]”, for which, in series [1], the MIC90 is 0.03125 µg/mL. For the same compound, in series [2] (setting [4]), the “AUC0-∞” value is reported as 5883.88 ng·h/mL, the CL was 283.3 mL/min/kg, the highest concentration (Cmax) was found to be 2084.39 ng/mL and the time of peak concentration (Tmax) was 0.33 h. Further, the t1/2 in series [2] (setting [4]) was found to be 4.75 h. In addition, the AUC0-t in series [2] (setting [5]) worked out at 5655.66 ng·h/mL. Moreover, the “reduction of pulmonary bacterial load” value in series [3] (mouse, in vivo) is on record as 1.87 log.

In series [1], “8-((4-(3-Chlorophenyl)piperidin-1-yl-2,2,6,6-d4)methyl-d2)-3,9-dihydroxybenzo[5,6]oxepino[4,3-b]benzofuran-7(5H)-one hydrochloride [YF032]” yielded an MIC90 of 0.0625 µg/mL. For the same compound, in series [2] (setting [4]), the “AUC0-∞” value is on record as 14032.28 ng·h/mL, the CL came to 119 mL/min/kg, the highest concentration (Cmax) was 4332.29 ng/mL and the Tmax came to 1.00 h. This compound returned a t1/2 in series [2] (setting [4]) of 1.85 h. Moreover, the AUC0-t in series [2] (setting [5]) was 14030.17 ng·h/mL. In series [3] (mouse, in vivo), the “reduction in bacterial load” value is 0.81 log.

Take “3,9-Dihydroxy-8-((4-(1-hydroxybutyl-1-d)piperidin-2,2,6,6-d4-1-yl)methyl)benzo[5,6]oxepino[4,3-b]benzofuran-7(5H)-one hydrochloride [YF044]”: the MIC90 in series [1] turned out to be 0.0078 µg/mL. In series [2] (mouse, in vivo, po), the “AUC0-∞” value came to 111067.0 ng·h/mL, the CL is 150 mL/min/kg, the Cmax was found to be 4041.90 ng/mL and the “Lung tissue distribution Cmax” value came out at 43437.42 ng/g. For the same compound, in series [2] (mouse, in vivo, po), the Tmax is 0.50 h and the t1/2 amounted to 2.03 h. The AUC0-t in series [2] (mouse, in vivo, po, 24 h) was 11104.68 ng·h/mL.

On to `CCCC(O)C1CCN(Cc2c(O)ccc3oc4c(c23)C(=O)OCc2cc(O)ccc2-4)CC1` (stereo not shown) [Compound D], for which the MIC90 in series [1] (360 h, read-out: MIC90) was found to be 0.0156 µg/mL (≈ 0.0346 µM). Moreover, in series [2] (mouse, in vivo, po), the AUC(0-inf) is 4500 ng·h/mL; the exposure AUC(0-t) at 24 h amounted to 4470 ng·h/mL; the CL was 371.3 mL/min/kg; the Cmax was 2110 ng/mL and 13500 ng/g. Moreover, the half-life in series [2] (mouse, in vivo, po) is 2.86 h.

As for `[2H]c1c(O)c(C([2H])([2H])N2CCC([2H])(C([2H])(O)C([2H])([2H])CC)CC2)c2c3c(oc2c1[2H])-c1ccc(O)cc1C([2H])([2H])OC3=O` (stereo not shown) [YF048, 3,9-Dihydroxy-8-((4-(1-hydroxybutyl-1,2,2-d3)piperidin-1-yl-1-d)methyl-d2)benzo[5,6]oxepino[4,3-b]benzofuran-7(5H)-one-5,5,10,11-d4 hydrochloride], in series [1] (setting [6]), the MIC90 came out at 0.0156 µg/mL.

In the case of `[2H]C([2H])(CC)C(O)C1([2H])CCN(Cc2c(O)ccc3oc4c(c23)C(=O)OCc2cc(O)ccc2-4)CC1` (stereo not shown) [YF017, 3,9-Dihydroxy-8-((4-(1-hydroxybutyl-2,2-d2)piperidin-1-yl-4-d)methyl)benzo[5,6]oxepino[4,3-b]benzofuran-7(5H)-one], in series [1] (360 h, read-out: MIC90), the MIC90 turned out to be 0.0156 µg/mL (≈ 0.0343 µM).

As to `CCOc1ccc(NC(C)=O)cc1` [phenacetin], the “metabolism of positive substrate” value in the series on liver microsomes is on record as “almost completely metabolized”.

In the case of `[2H]C1([2H])N(Cc2c(O)cc(C(C)(C)C)c3oc4c5ccc(O)cc5oc(=O)c4c23)C([2H])([2H])C([2H])([2H])C([2H])([2H])C1([2H])[2H]` [YF004, 10-(tert-Butyl)-3,8-dihydroxy-7-((piperidin-1-yl-d10)methyl)-6H-benzofuran[3,2-c]chromen-6-one], the MIC90 in series [1] (setting [6]) was at most 0.0039 µg/mL.

As to “8-((4-(Butanoyl-2,2-d2)piperidin-1-yl-4-d)methyl-d2)-3,9-dihydroxybenzo[5,6]oxepino[4,3-b]benzofuran-7(5H)-one-5,5,10,11-d4 hydrochloride [YF038]”, the MIC90 in series [1] was 0.0625 µg/mL.

These data come from patent EP4775586A1, “DEUTERATED TETRACYCLIC DERIVATIVE AND USE THEREOF” (priority 2023, dated 2025).
